Source: article PMC3306375, “A Unique Modification of the Eukaryotic Initiation Factor 5A Shows the Presence of the Complete Hypusine Pathway in Leishmania donovani” (PLoS ONE, 2012)

Assays:
[1] = target: T1, hDOHH (recombinant human deoxyhypusine hydroxylase) (Homo sapiens, UniProt Q9BU89); experiment: [3H]hypusine release assay (periodate oxidation); assay type: biochemical
T1 construct: gene DOHH; hDOHH-pGEX-4T-3, E. coli BL21, GST tag removed with thrombin
T1 sequence (Q9BU89 1-302): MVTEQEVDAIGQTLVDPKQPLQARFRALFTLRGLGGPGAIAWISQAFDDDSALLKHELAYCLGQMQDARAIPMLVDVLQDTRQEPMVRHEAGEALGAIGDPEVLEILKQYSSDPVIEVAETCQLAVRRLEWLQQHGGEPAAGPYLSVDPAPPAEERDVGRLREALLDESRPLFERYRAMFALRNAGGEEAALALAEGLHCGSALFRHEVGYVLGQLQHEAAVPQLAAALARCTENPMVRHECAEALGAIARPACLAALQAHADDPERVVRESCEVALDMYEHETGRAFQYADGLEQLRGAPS

[2] = target: T2, LdDOHH (recombinant L. donovani deoxyhypusine hydroxylase) (Leishmania donovani, UniProt D9IFD5); experiment: [3H]hypusine release assay (periodate oxidation), Hill fit; assay type: biochemical; details: read-out: concentration that inhibited 50% of activity
T2 construct: gene DOHH; full length, 326 aa (981 bp ORF, ~36 kDa), pET30a EcoRI-HindIII, 6xHis tag printed as C-terminal (~6 kDa, kept), ~42 kDa, E. coli BL21(DE3), Ni-NTA
T2 sequence (D9IFD5 1-326): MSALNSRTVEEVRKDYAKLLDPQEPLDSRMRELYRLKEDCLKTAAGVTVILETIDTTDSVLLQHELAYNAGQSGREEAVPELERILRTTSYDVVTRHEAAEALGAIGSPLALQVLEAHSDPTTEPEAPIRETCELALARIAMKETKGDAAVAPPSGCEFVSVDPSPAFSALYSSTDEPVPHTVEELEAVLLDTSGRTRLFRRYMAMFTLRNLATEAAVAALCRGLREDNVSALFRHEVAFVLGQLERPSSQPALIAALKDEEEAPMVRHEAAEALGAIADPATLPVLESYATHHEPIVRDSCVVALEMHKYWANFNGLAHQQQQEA

Cc1cc(C2CCCCC2)n(O)c(=O)c1 [ciclopirox olamine]
inhibition at 15 µM [1]: ~32%
IC50 [2]: 13.6 µM

N[C@@H](Cn1ccc(=O)c(O)c1)C(=O)O [mimosine]
inhibition at 15 µM [1]: ~22%
IC50 [2]: 13 µM
